US20220333077A1, “Product for Therapy and Methods” (The University of Bristol, priority 2019, published 2022)
Entries after “also recorded” stand apart in the source; their conditions may differ. Residues, ends and D or L forms follow the SMILES beside them. *: point of attachment. Cbz = O=C(OCc1ccccc1)*

How the values were obtained:
[1] = tested on: thymidine phosphorylase (TP); test: Effect of degradation inhibitors on TP expression in differentiating cTP cells; assay type: cell-based, human; conditions: day 14 cTP cells, 24 hours incubation; 10 μM leupeptin or 5 μM MG132
Source text: The substantial loss of TP enzyme expression during differentiation could mean that TP is being actively degraded during terminal differentiation. To test whether exogenous TP degradation during differentiation is due to ubiquitination or lysosomal degradation, we subjected the day 14 (orthochromatic erythrocytes) cTP cells to an ubiquitination inhibitor MG132, or a lysosomal degradation inhibitor, leupeptin (Tsubuki, S., et al., J Biochem, 1996, 119(3), p. 572-6; Hershko, A. and A. Ciechanover, Annu Rev Biochem, 1982, 51, p. 335-64). TP expression was first measured on day 14 and then 24 hours after incubation with inhibitors or the vehicle control.
As previously described (Griffiths, R. E., et al., Blood, 2012. 119(26), p. 6296-306), CD34+ haemopoietic stem cells (HSC) here isolated from human blood donor mononuclear cells or from thawed cryopreserved cord blood units by magnetic bead separation according to manufacturer's instructions (Miltenyi Biotech Ltd, Bisley UK). CD34+ cells were grown at a density of 2×10^5 cells/ml using a base medium consisting of IMDM (Source BioScience) containing 3% (v/v) AB Serum, 2 mg/ml HSA, 10 μg/ml Insulin, 3U/ml heparin, 500 μg/ml transferrin and 3U/ml Epo. […] Cells where fixed with paraformaldehyde and analysed by flow cytometry.

glutamine synthase = test: MG132 effect on glutamine synthase levels in GS (over)expressing erythroblasts, flow cytometry; assay type: cell-based, human; conditions: MG132 added at day 15, expression measured at day 19
Source text: To investigate the degree to which exogenous enzyme expression is retained during erythropoiesis, four different enzymes were expressed in CD34+ haematopoietic stem cells (using lentivirus) and subsequently differentiated to reticulocytes: glutamine synthase (FIG. 8), adenosine deaminase (FIG. 9), L-asparaginase (FIG. 10), and uricase (FIG. 11). The exogenous proteins Uricase (a bacterial enzyme), human L-asparaginase (ASP) and human […] (ADA) were tagged with c-Myc to facilitate measurement of expression during differentiation by flow cytometry and western blot. GAPDH is an endogenous enzyme which was also blotted for in some cases. For human glutamine synthetase (GS) an antibody specific for this protein was used to detect expression by flow cytometry. The bar graphs in FIGS. 8-11 show expression of indicated enzymes during differentiation as assessed by flow cytometry across two different cultures. Western blots illustrate expression of the enzymes in in vitro derived reticulocytes. To explore whether ubiquitination enhances GS enzyme retention at the end of the culture, MG132 (a ubiquitin inhibitor) was added at day 15 to the GS (over)expressing erythroblasts. Expression was measured at day 19 by flow cytometry.

[2] = target: T1, thymidine phosphorylase (TP) (Homo sapiens, UniProt P19971); test: Thymidine supplementation of differentiation media, TP enzyme abundance in reticulocytes; assay type: cell-based
T1 construct: expressed in transfected cells; host or cells: CD34+-derived cultured human erythroid progenitors (cTP) and BEL-A erythroid cells (bTP), lentiviral XLG3 vector
T1 sequence (P19971 11-482): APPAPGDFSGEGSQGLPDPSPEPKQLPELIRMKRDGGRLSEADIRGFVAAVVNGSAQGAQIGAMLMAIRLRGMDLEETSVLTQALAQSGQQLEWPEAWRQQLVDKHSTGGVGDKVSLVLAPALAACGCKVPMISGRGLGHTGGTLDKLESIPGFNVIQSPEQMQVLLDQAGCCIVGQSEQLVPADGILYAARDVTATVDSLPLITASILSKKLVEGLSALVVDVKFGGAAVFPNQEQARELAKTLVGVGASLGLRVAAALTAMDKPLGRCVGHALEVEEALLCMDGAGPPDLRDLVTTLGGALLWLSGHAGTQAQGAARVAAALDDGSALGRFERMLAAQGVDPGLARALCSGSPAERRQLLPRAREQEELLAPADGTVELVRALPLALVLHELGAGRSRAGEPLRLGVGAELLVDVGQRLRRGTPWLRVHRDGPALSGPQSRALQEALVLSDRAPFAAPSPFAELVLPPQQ
Source text: After further examination of the molecular human TP structure we observed that the 2 ubiquitination sites that correspond with murine TP, would only be available for ubiquitination in the absence of substrate.
Reticulocytes were identified by gating upon Hoechst-negative population.

[3] = tested on: in vitro cultured erythroid cells; assay type: cell-based; conditions: 0.5 mM thymidine added early, e.g. Day 0 of differentiation; data not shown

Row | SMILES | effect on TP degradation during differentiation [1] | glutamine synthase levels in reticulocytes (glutamine synthase) | TP enzyme abundance compared to standard differentiation media ([2]; bTP reticulocytes, 0.5 mM thymidine daily from day 6 (polychromatic erythroblast stage)) | TP enzyme abundance compared to standard differentiation media ([2]; cTP reticulocytes, 0.5 mM thymidine daily from day 14 (polychromatic erythroblast stage)) | concentration of active TP in the reticulocyte ([2]; thymidine added to the media, un-mutated ubiquitination site) | cell death and differentiation [3]
1 | CC(C)C[C@@H](C=O)NC(=O)[C@H](CC(C)C)NC(=O)[C@H](CC(C)C)NC(=O)OCc1ccccc1 [MG132] (Cbz-Leu-Leu-Leu-aldehyde) | protected TP from degradation during differentiation; also recorded: inhibition of degradation was observed | increases glutamine synthase levels in reticulocytes |  |  |  | 
2 | CC(=O)N[C@@H](CC(C)C)C(=O)N[C@@H](CC(C)C)C(=O)N[C@H](C=O)CCCNC(=N)N [leupeptin] | did not impair degradation |  |  |  |  | 
3 | Cc1cn([C@H]2C[C@H](O)[C@@H](CO)O2)c(=O)[nH]c1=O [thymidine] |  |  | doubled | doubled | roughly double | increase in cell death and inhibition of differentiation
